Source: ChEMBL document CHEMBL1201862, “PubChem BioAssay data set” (2004)
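How tested: cells in 96-well plates exposed to compound for 48 hours at five concentrations. GI50: concentration for 50% inhibition of growth.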 Calls of active or inactive are those of the source. Rule as the data show it: active = GI50 up to about 1.1 µM and inactive = higher.

Legend:
Assay in all cases: NCI-60 cell line screen, 48 h
Malme-3M = tested on: Malme-3M
HOP-62 = tested on: HOP-62
M14 = tested on: M14
K562 = tested on: K562
TK-10 = tested on: TK-10
OVCAR-5 = tested on: OVCAR-5
SK-MEL-28 = tested on: SK-MEL-28
A498 = tested on: A498
SF-539 = tested on: SF-539
IGROV-1 = tested on: IGROV-1
HT-29 = tested on: HT-29
HOP-92 = tested on: HOP-92
NCI-H522 = tested on: NCI-H522
DU-145 = tested on: DU-145
BT-549 = tested on: BT-549
EKVX = tested on: EKVX
SN12C = tested on: SN12C
COLO 205 = tested on: COLO 205
SNB-19 = tested on: SNB-19
Hs-578T = tested on: Hs-578T

| Structure (SMILES) | GI50 (Malme-3M) | GI50 (HOP-62) | GI50 (M14) | GI50 (K562) | GI50 (TK-10) | GI50 (OVCAR-5) | GI50 (SK-MEL-28) | GI50 (A498) | GI50 (SF-539) | GI50 (IGROV-1) | GI50 (HT-29) | GI50 (HOP-92) | GI50 (NCI-H522) | GI50 (DU-145) | GI50 (BT-549) | GI50 (EKVX) | GI50 (SN12C) | GI50 (COLO 205) | GI50 (SNB-19) | GI50 (Hs-578T) |
| --- | --- | --- | --- | --- | --- | --- | --- | --- | --- | --- | --- | --- | --- | --- | --- | --- | --- | --- | --- | --- |
| COC(=O)[C@H]1[C@@H](O)[C@@]2(O)c3c(OC)cc(OC)cc3O[C@@]2(c2ccc3c(c2)OCO3)[C@@H]1c1ccccc1 | 0.0168 µM (active) | 0.00879 µM (active) | 0.00603 µM (active) | < 0.005 µM (active) | 0.00684 µM (active) | 0.00953 µM (active) | 0.00815 µM (active) | 0.0144 µM (active) | < 0.005 µM (active) | 0.00518 µM (active) | < 0.005 µM (active) | 0.0408 µM (active) | < 0.0122 µM (active) | 0.00873 µM (active) | 0.0219 µM (active) | 0.017 µM (active) | 0.0076 µM (active) | 0.00736 µM (active) | < 0.005 µM (active) | 0.0146 µM (active) |
| NS(=O)(=O)c1ccc(NC(=O)N/N=C/c2ccccc2[N+](=O)[O-])cc1 | 78.2 µM (inactive) | 40.8 µM (inactive) | 25.5 µM (inactive) | 28.8 µM (inactive) | > 100 µM (inactive) | > 100 µM (inactive) | 61.2 µM (inactive) | > 100 µM (inactive) | 38.5 µM (inactive) | 31.2 µM (inactive) | 30.1 µM (inactive) | 65.3 µM (inactive) | 41.8 µM (inactive) | 72.3 µM (inactive) | 45.4 µM (inactive) | 61 µM (inactive) | 32.7 µM (inactive) | 38.4 µM (inactive) | 44 µM (inactive) | 46.6 µM (inactive) |
| COC(=O)c1sc2c(Cl)c(Cl)sc2c1Cl | > 100 µM (inactive) | 30.7 µM (inactive) | > 100 µM (inactive) | > 100 µM (inactive) | 24.2 µM (inactive) | > 100 µM (inactive) | > 100 µM (inactive) | > 100 µM (inactive) | 66.7 µM (inactive) | > 100 µM (inactive) | > 100 µM (inactive) | > 100 µM (inactive) | > 100 µM (inactive) | > 100 µM (inactive) | > 100 µM (inactive) | > 100 µM (inactive) | > 100 µM (inactive) | > 100 µM (inactive) | > 100 µM (inactive) | > 100 µM (inactive) |
| Cc1cn2cc(-c3cccs3)nc2s1 | > 100 µM (inactive) | > 100 µM (inactive) | > 78.3 µM (inactive) | 99.3 µM (inactive) | > 73.3 µM (inactive) | > 100 µM (inactive) | > 100 µM (inactive) | 27.2 µM (inactive) | > 100 µM (inactive) | > 86.3 µM (inactive) | > 41.2 µM (inactive) | > 71.8 µM (inactive) | > 100 µM (inactive) | > 40.4 µM (inactive) | > 100 µM (inactive) | > 65.8 µM (inactive) | > 100 µM (inactive) | > 95.5 µM (inactive) | > 100 µM (inactive) | > 100 µM (inactive) |
| CC(C)(C)c1cc(-c2cc(C(C)(C)C)[nH]n2)[nH]n1 | > 100 µM (inactive) | > 100 µM (inactive) | > 100 µM (inactive) | 47.5 µM (inactive) | > 100 µM (inactive) | > 100 µM (inactive) | > 100 µM (inactive) | > 100 µM (inactive) | > 100 µM (inactive) | > 100 µM (inactive) | > 100 µM (inactive) | > 100 µM (inactive) | > 100 µM (inactive) | > 100 µM (inactive) | > 100 µM (inactive) | > 100 µM (inactive) | > 100 µM (inactive) | > 100 µM (inactive) | > 100 µM (inactive) | > 100 µM (inactive) |
| O=C1NC(O)c2ccccc2O1 (stereo not given) | > 100 µM (inactive) | > 100 µM (inactive) | > 100 µM (inactive) | > 100 µM (inactive) | > 100 µM (inactive) | > 100 µM (inactive) | > 100 µM (inactive) | > 100 µM (inactive) | > 100 µM (inactive) | > 100 µM (inactive) | > 100 µM (inactive) | > 100 µM (inactive) | > 100 µM (inactive) | > 100 µM (inactive) | > 100 µM (inactive) | > 100 µM (inactive) | > 100 µM (inactive) | > 100 µM (inactive) | > 100 µM (inactive) | > 100 µM (inactive) |
| Cc1ccc(C(=O)Cc2nc3ncccc3[nH]c2=O)cc1 | 23.2 µM (inactive) | 26 µM (inactive) | 82.8 µM (inactive) | > 100 µM (inactive) | 29.9 µM (inactive) | 81.5 µM (inactive) | 32.8 µM (inactive) | > 100 µM (inactive) | 30.5 µM (inactive) | 37.2 µM (inactive) | 59.6 µM (inactive) | 14.6 µM (inactive) | 48.3 µM (inactive) | 58.2 µM (inactive) | 43.7 µM (inactive) | 33.2 µM (inactive) | 55.5 µM (inactive) | 58.9 µM (inactive) | 6.15 µM (inactive) | 13.3 µM (inactive) |
